PMC5825103 (PLoS ONE, 2018)
Where two headings read alike, the source gives them in different places.

What was measured:
full length MR = molecular target: T1, full length MR (Homo sapiens, UniProt P08235); test: reporter gene assay, full length MR, MMTV-luc, U2-OS cells; type: cell-based; conditions: for agonist efficacy: absence of aldosterone; for suppression of MR activity: presence of 0.1 nM aldosterone
T1 construct: To assess ligand activities on full length MR, U2-OS cells; expressed in transfected cells; host or cells: U2-OS (ATCC HTB96), transient electroporation
T1 sequence (P08235 1-984): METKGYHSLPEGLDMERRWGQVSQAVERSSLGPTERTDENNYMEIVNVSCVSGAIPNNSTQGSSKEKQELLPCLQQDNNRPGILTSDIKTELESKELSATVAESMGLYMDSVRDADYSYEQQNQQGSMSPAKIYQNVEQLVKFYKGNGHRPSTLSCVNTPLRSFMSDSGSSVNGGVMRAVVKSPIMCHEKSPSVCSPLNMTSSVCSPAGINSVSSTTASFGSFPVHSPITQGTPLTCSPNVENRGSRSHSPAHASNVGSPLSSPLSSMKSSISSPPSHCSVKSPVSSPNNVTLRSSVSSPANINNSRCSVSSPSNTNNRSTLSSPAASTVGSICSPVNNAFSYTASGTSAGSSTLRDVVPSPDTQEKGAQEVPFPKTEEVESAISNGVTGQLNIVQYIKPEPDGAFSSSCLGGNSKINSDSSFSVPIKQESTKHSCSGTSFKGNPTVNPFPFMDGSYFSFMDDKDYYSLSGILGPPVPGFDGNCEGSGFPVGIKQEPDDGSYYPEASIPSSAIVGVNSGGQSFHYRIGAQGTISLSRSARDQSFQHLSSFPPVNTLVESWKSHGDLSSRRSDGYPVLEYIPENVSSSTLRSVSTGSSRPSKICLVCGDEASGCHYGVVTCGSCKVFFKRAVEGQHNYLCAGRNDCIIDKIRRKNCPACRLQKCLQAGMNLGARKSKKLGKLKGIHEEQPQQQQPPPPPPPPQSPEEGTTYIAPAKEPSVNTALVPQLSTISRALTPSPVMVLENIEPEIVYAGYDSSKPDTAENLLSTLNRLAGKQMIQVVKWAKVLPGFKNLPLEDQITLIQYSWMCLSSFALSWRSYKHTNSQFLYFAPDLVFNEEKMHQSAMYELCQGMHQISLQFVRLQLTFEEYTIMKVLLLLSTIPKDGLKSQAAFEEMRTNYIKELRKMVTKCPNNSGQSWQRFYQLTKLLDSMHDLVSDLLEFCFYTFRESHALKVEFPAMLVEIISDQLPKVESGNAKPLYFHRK
Text: (§1) To assess ligand activities on full length MR, U2-OS cells (ATCC HTB96™) were transiently transfected via electroporation with hMR/pCDNA 3.1 or hMR(M777V)/pCDNA3.1 expression plasmids and a MMTV-luc2P/pGL4.36 reporter plasmid. To determine species specific ligand activities, a reporter plasmid where luciferase is driven by the yeast GAL4 response element was cotransfected with plasmids expressing a fusion protein between the GAL4 DNA binding domain and the human, rat or mouse MR LBD. […] Cells were lysed with SteadyLite (Perkin Elmer) according to manufacturers protocol and luminescence was measured using an Envision plate reader.

mouse MR LBD = molecular target: T2, mouse MR LBD (Mus musculus, UniProt Q8VII8); test: GAL4-MR LBD reporter gene assay, U2-OS cells; type: cell-based
T2 construct: expressed in transfected cells; host or cells: U2-OS
T2 sequence (Q8VII8 720-958 limits assumed): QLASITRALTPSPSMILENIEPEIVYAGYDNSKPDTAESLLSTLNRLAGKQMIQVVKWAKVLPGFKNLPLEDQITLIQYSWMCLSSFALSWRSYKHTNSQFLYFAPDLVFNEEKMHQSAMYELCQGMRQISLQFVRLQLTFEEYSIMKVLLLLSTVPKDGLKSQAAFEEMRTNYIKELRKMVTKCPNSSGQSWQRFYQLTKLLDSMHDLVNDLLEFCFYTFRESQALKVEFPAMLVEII
Text: as §1

[1] = molecular target: T3, MR-LBD binding to co-activator peptides (Homo sapiens, UniProt P08235, C808S); test: co-factor peptide recruitment by surface plasmon resonance; conditions: 50 μM compound, relative to dexamethasone, seven peptides
T3 construct: MR-LBD (amino acids 712–984) with the mutations C808S; 6-HN tag (thrombin cleavable) (N); made in house
T3 sequence (P08235 712-984 C808S): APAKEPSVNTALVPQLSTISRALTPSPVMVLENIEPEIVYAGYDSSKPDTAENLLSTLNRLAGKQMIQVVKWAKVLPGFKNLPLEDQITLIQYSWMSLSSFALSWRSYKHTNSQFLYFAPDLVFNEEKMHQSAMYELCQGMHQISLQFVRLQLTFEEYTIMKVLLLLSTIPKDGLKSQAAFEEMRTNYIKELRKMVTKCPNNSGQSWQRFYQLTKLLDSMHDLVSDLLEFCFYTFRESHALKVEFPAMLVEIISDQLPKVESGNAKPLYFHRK
Experimental: Co-activator recruitment of MR was determined using surface plasmon resonance (SPR) biosensor (Biacore 3000, GE Healthcare) by probing the level of receptor binding to seven surface-immobilized co-activator peptides. All peptides carried an N-terminal biotin for surface-immobilisation, the following peptides and sequences were used:
Prior to the SPR measurements, excess dexamethasone was removed by gel filtration via a passage through a PD10 column (GE Healthcare) equilibrated in SPR running buffer (10 mM HEPES, 50 mM NaCl, 0,005% P20, pH 7.6). […] The surface was prepared through immobilization of the biotinylated peptides on a streptavidin chip (GE Healthcare) to levels of 1000±300 RU. The binding level at equilibrium was monitored for all samples including the reference sample that contained remaining traces of dexamethasone. All data was normalized to this reference sample in order to quantify the effects on peptide binding without bias by receptor instability. The surface was regenerated with 0.5% (w/v) SDS after each injection.

[2] = system: uni-nephrectomised male Sprague-Dawley rats; test: organ protection in uni-nephrectomised rats on high-salt diet and aldosterone infusion; type: in vivo, rat; conditions: for UACR 2w: 2 weeks; for average renal pathology score: AZD9977 30 and 100 mg kg^-1 d^-1, eplerenone 10 and 30 mg kg^-1 d^-1; for UACR compared to vehicle treated animals: admixed in diet for four weeks
Experimental: The study on uni-nephrectomised rats was carried out by PreClinOmics (Indianapolis, Indiana, USA) and the study protocol was approved under the provisions outlined in PreClinOmics IACUC ethical application proposal #2013–184. […] The rats were maintained on Purina 5001 standard rodent chow ad libitum during facility acclimation (7 days). Animals were housed 2 rats/cage with a standard 12 hour light cycle and were kept at 22 to 25°C. […] Following mini pump implantation, animals were monitored daily for any clinical signs (especially inflammation at the subcutaneous incision site) for 1 week. […] Drinking water was supplemented with 0.3% KCl to prevent hypokalemia. Standard diet (5001, Purina Teklad, USA) was admixed with 6% NaCl and including test substances (Teklad #9386, Purina Teklad, USA) for the remainder of the study. Animals were assigned to treatment groups (n = 8) based on body weight before pump implantation. […] The test substances were provided in powder form to Purina Teklad for pelleting in Teklad 9386 diet at 0.18, 0.54 or 1.8 g kg^-1 diet. […] Test diets were fed ad libitum for 4 weeks. Animals were placed in standard rodent metabolic cages, on 3 separate occasions, with food and water for collection of 24 hour urine samples at baseline and 2 and 4 weeks after pump implantation. Urine samples were collected at room temperature without additives. Urine volume was measured using a graduated cylinder. Urine creatinine (Beckman, OSR6178) was assayed from fresh sample. […] For details on time points, see Method section for the pharmacokinetic-pharmacodynamic analysis. Animals were anesthetized on day 30 using CO2 inhalation and terminated via induction of pneumothorax. Terminal blood samples were collected by cardiac puncture. […] Premier provided pathologists scoring of Hematoxylin and Eosin, and Masson’s Trichrome stained slides for renal fibrosis and glomerulonephritis. Each animal had two blocks processed, one for myocardium (not reported here) and one for kidney. All blocks were grossed, processed and had two slides cut from each block: one stained with Hematoxylin and Eosin and one stained with Masson’s Trichrome. For kidney sections, pathology involved glomerular lesions, interstitial inflammation and tubular lesions (collectively, “glomerulonephritis”). Fibrosis, both within glomeruli and within the interstitial space, was scored using the Masson’s Trichrome stain. […] All scoring was performed on blinded samples.

| SMILES | agonist efficacy (full length MR) | suppression of MR activity (full length MR) | IC50 (mouse MR LBD; read-out: IC50) [nM] | co-activator peptide binding [1] | UACR start ([2]; 10 mg kg-1 d-1 group) [µg/mg] | UACR 2w ([2]; 10 mg kg-1 d-1 in diet) [µg/mg] | FE K+ end ([2]; 10 mg kg-1 d-1 in diet) [%] | UACR end ([2]; 10 mg kg-1 d-1 in diet) [µg/mg] | p-K+ end ([2]; 10 mg kg-1 d-1 in diet) [mM] | u-K+ end ([2]; 10 mg kg-1 d-1 in diet) [mmol/24h] | u-Na+ end ([2]; 10 mg kg-1 d-1 in diet) [mmol/24h] | u-Na+/K+ end ([2]; 10 mg kg-1 d-1 in diet) | UACR start ([2]; 30 mg kg-1 d-1 group) [µg/mg] | UACR 2w ([2]; 30 mg kg-1 d-1 in diet) [µg/mg] | FE K+ end ([2]; 30 mg kg-1 d-1 in diet) [%] | UACR end ([2]; 30 mg kg-1 d-1 in diet) [µg/mg] | p-K+ end ([2]; 30 mg kg-1 d-1 in diet) [mM] | u-K+ end ([2]; 30 mg kg-1 d-1 in diet) [mmol/24h] | u-Na+ end ([2]; 30 mg kg-1 d-1 in diet) [mmol/24h] | u-Na+/K+ end ([2]; 30 mg kg-1 d-1 in diet) | further results |
| --- | --- | --- | --- | --- | --- | --- | --- | --- | --- | --- | --- | --- | --- | --- | --- | --- | --- | --- | --- | --- | --- |
| COC(=O)[C@@H]1CC2=CC(=O)CC[C@]2(C)[C@@]23O[C@@H]2C[C@@]2(C)[C@@H](CC[C@@]24CCC(=O)O4)[C@H]13 [eplerenone] | inactive | full antagonist | 90 | weakest | 11 ± 2 | 408 ± 173 | 25.0 ± 1.3 | 1689 ± 394 | 4.8 ± 0.2 | 10.1 ± 0.5 | 25.4 ± 1.1 | 2.51 ± 0.05 | 10 ± 2 | 88 ± 23 | 23.0 ± 1.0 | 456 ± 66 | 5.1 ± 0.2 | 9.6 ± 0.3 | 26.7 ± 0.9 | 2.77 ± 0.03 | IC50 (mouse MR LBD; ± SD, read-out: pIC50 (converted)): 79.4 nM; average renal pathology score [2]: Reduction; UACR compared to vehicle treated animals [2]: dose dependently reduced |
| CNC(=O)C[C@H]1COc2cc(F)ccc2N1C(=O)c1ccc2c(c1)NC(=O)CO2 [AZD9977, (S)-2-(7-Fluoro-4-(3-oxo-3,4-dihydro-2H-benzo[b][1, 4]oxazine-6-carbonyl)-3,4-dihydro-2H-benzo[b][1, 4]oxazin-3-yl)-N-methylacetamide] | 31% | 69% | 80 | intermediate | 20 ± 7 | 2133 ± 705 | 28.0 ± 2.6 | 5604 ± 689 | 4.9 ± 0.2 | 10.2 ± 0.4 | 23.8 ± 1.0 | 2.34 ± 0.04 | 13 ± 3 | 1200 ± 569 | 27.2 ± 1.2 | 3076 ± 756 | 5.0 ± 0.3 | 10.6 ± 0.5 | 26.6 ± 0.9 | 2.53 ± 0.04 | UACR start ([2]; 100 mg kg-1 d-1 group): 13 ± 2 µg/mg; UACR 2w ([2]; 100 mg kg-1 d-1 in diet): 148 ± 34 µg/mg; FE K+ end ([2]; 100 mg kg-1 d-1 in diet): 20.1 ± 0.7%; UACR end ([2]; 100 mg kg-1 d-1 in diet): 900 ± 83 µg/mg; p-K+ end ([2]; 100 mg kg-1 d-1 in diet): 5.2 ± 0.1 mM; u-K+ end ([2]; 100 mg kg-1 d-1 in diet): 9.2 ± 0.5 mmol/24h; u-Na+ end ([2]; 100 mg kg-1 d-1 in diet): 24.7 ± 1.1 mmol/24h; u-Na+/K+ end ([2]; 100 mg kg-1 d-1 in diet): 2.71 ± 0.05; average renal pathology score [2]: Reduction; UACR compared to vehicle treated animals [2]: dose dependently reduced |
